Experimental data published in PubChem BioAssay (NCI).
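Values below derive from 48-hour exposures of cells grown in 96-well plates, with endpoints linearly interpolated between the two concentrations bracketing the appropriate inhibition level. The concentration for full growth arrest is given as TGI.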

What was measured:
Test in all cases: growth of human tumour cells (NCI), 48 h
786-0 renal = test system: 786-0 renal
A498 renal = test system: A498 renal
A549 NSCLC = test system: A549 NSCLC
ACHN renal = test system: ACHN renal
CAKI-1 renal = test system: CAKI-1 renal
CCRF-CEM leukemia = test system: CCRF-CEM leukemia
COLO 205 colon = test system: COLO 205 colon
DLD-1 colon = test system: DLD-1 colon
DMS 114 small cell lung = test system: DMS 114 small cell lung
DMS 273 small cell lung = test system: DMS 273 small cell lung
EKVX NSCLC = test system: EKVX NSCLC
HCC-2998 colon = test system: HCC-2998 colon
HCT-116 colon = test system: HCT-116 colon
HCT-15 colon = test system: HCT-15 colon
HL-60(TB) leukemia = test system: HL-60(TB) leukemia
HOP-18 NSCLC = test system: HOP-18 NSCLC
HOP-62 NSCLC = test system: HOP-62 NSCLC
HOP-92 NSCLC = test system: HOP-92 NSCLC
HT29 colon = test system: HT29 colon
IGROV1 ovarian = test system: IGROV1 ovarian
K-562 leukemia = test system: K-562 leukemia
KM12 colon = test system: KM12 colon
LOX IMVI melanoma = test system: LOX IMVI melanoma
M14 melanoma = test system: M14 melanoma
M19-MEL melanoma = test system: M19-MEL melanoma
MALME-3M melanoma = test system: MALME-3M melanoma
MOLT-4 leukemia = test system: MOLT-4 leukemia
NCI-H226 lung = test system: NCI-H226 lung
NCI-H23 lung = test system: NCI-H23 lung
NCI-H460 lung = test system: NCI-H460 lung
OVCAR-3 ovarian = test system: OVCAR-3 ovarian
OVCAR-4 ovarian = test system: OVCAR-4 ovarian
OVCAR-5 ovarian = test system: OVCAR-5 ovarian
OVCAR-8 ovarian = test system: OVCAR-8 ovarian
RXF 393 renal = test system: RXF 393 renal
RXF-631 renal = test system: RXF-631 renal
SF-268 CNS = test system: SF-268 CNS
SF-295 CNS = test system: SF-295 CNS
SF-539 CNS = test system: SF-539 CNS
SK-MEL-2 melanoma = test system: SK-MEL-2 melanoma
SK-MEL-28 melanoma = test system: SK-MEL-28 melanoma
SK-MEL-5 melanoma = test system: SK-MEL-5 melanoma
SK-OV-3 ovarian = test system: SK-OV-3 ovarian
SN12C renal = test system: SN12C renal
SNB-19 CNS = test system: SNB-19 CNS
SNB-75 CNS = test system: SNB-75 CNS
SNB-78 CNS = test system: SNB-78 CNS
SW-620 colon = test system: SW-620 colon
TK-10 renal = test system: TK-10 renal
U251 CNS = test system: U251 CNS
UACC-257 melanoma = test system: UACC-257 melanoma
UACC-62 melanoma = test system: UACC-62 melanoma
UO-31 renal = test system: UO-31 renal
KM20L2 colon = test system: KM20L2 colon
LXFL 529 NSCLC = test system: LXFL 529 NSCLC
NCI-H522 lung = test system: NCI-H522 lung
RPMI-8226 leukemia = test system: RPMI-8226 leukemia
SR leukemia = test system: SR leukemia
XF 498 CNS = test system: XF 498 CNS

O=C1CCC(O)=C1N=Nc1ccccc1
TGI (786-0 renal): > 100 µM
TGI (A498 renal): > 100 µM
TGI (A549 NSCLC): > 100 µM
TGI (ACHN renal): > 100 µM
TGI (CAKI-1 renal): > 100 µM
TGI (CCRF-CEM leukemia): > 100 µM
TGI (COLO 205 colon): > 100 µM
TGI (DLD-1 colon): > 100 µM
TGI (DMS 114 small cell lung): > 100 µM
TGI (DMS 273 small cell lung): > 100 µM
TGI (EKVX NSCLC): > 100 µM
TGI (HCC-2998 colon): > 100 µM
TGI (HCT-116 colon): > 100 µM
TGI (HCT-15 colon): > 100 µM
TGI (HL-60(TB) leukemia): > 100 µM
TGI (HOP-18 NSCLC): > 100 µM
TGI (HOP-62 NSCLC): > 100 µM
TGI (HOP-92 NSCLC): > 100 µM
TGI (HT29 colon): > 100 µM
TGI (IGROV1 ovarian): > 100 µM
TGI (K-562 leukemia): > 100 µM
TGI (KM12 colon): > 100 µM
TGI (LOX IMVI melanoma): > 100 µM
TGI (M14 melanoma): > 100 µM
TGI (M19-MEL melanoma): > 100 µM
TGI (MALME-3M melanoma): > 100 µM
TGI (MOLT-4 leukemia): > 100 µM
TGI (NCI-H226 lung): > 100 µM
TGI (NCI-H23 lung): > 100 µM
TGI (NCI-H460 lung): > 100 µM
TGI (OVCAR-3 ovarian): > 100 µM
TGI (OVCAR-4 ovarian): > 100 µM
TGI (OVCAR-5 ovarian): > 100 µM
TGI (OVCAR-8 ovarian): > 100 µM
TGI (RXF 393 renal): > 100 µM
TGI (RXF-631 renal): > 100 µM
TGI (SF-268 CNS): > 100 µM
TGI (SF-295 CNS): > 100 µM
TGI (SF-539 CNS): > 100 µM
TGI (SK-MEL-2 melanoma): > 100 µM
TGI (SK-MEL-28 melanoma): > 100 µM
TGI (SK-MEL-5 melanoma): > 100 µM
TGI (SK-OV-3 ovarian): > 100 µM
TGI (SN12C renal): > 100 µM
TGI (SNB-19 CNS): > 100 µM
TGI (SNB-75 CNS): > 100 µM
TGI (SNB-78 CNS): > 100 µM
TGI (SW-620 colon): > 100 µM
TGI (TK-10 renal): > 100 µM
TGI (U251 CNS): > 100 µM
TGI (UACC-257 melanoma): > 100 µM
TGI (UACC-62 melanoma): 74.1 µM
TGI (UO-31 renal): > 100 µM

O=C1CCCC[C@H]1[C@H]1CCC[C@@H]([C@H]2CCCCC2=O)C1=O
TGI (786-0 renal): > 100 µM
TGI (A498 renal): > 100 µM
TGI (A549 NSCLC): > 100 µM
TGI (ACHN renal): > 100 µM
TGI (CAKI-1 renal): > 100 µM
TGI (CCRF-CEM leukemia): > 100 µM
TGI (COLO 205 colon): > 100 µM
TGI (DLD-1 colon): > 100 µM
TGI (DMS 273 small cell lung): > 100 µM
TGI (EKVX NSCLC): > 100 µM
TGI (HCC-2998 colon): > 100 µM
TGI (HCT-116 colon): > 100 µM
TGI (HCT-15 colon): > 100 µM
TGI (HL-60(TB) leukemia): > 100 µM
TGI (HOP-18 NSCLC): > 100 µM
TGI (HOP-62 NSCLC): > 100 µM
TGI (HOP-92 NSCLC): > 100 µM
TGI (HT29 colon): > 100 µM
TGI (IGROV1 ovarian): > 100 µM
TGI (K-562 leukemia): > 100 µM
TGI (KM12 colon): > 100 µM
TGI (KM20L2 colon): > 100 µM
TGI (LOX IMVI melanoma): > 100 µM
TGI (LXFL 529 NSCLC): > 100 µM
TGI (M14 melanoma): > 100 µM
TGI (M19-MEL melanoma): > 100 µM
TGI (MALME-3M melanoma): > 100 µM
TGI (MOLT-4 leukemia): > 100 µM
TGI (NCI-H226 lung): > 100 µM
TGI (NCI-H23 lung): > 100 µM
TGI (NCI-H460 lung): > 100 µM
TGI (NCI-H522 lung): > 100 µM
TGI (OVCAR-3 ovarian): > 100 µM
TGI (OVCAR-4 ovarian): > 100 µM
TGI (OVCAR-5 ovarian): > 100 µM
TGI (RPMI-8226 leukemia): > 100 µM
TGI (RXF 393 renal): > 100 µM
TGI (RXF-631 renal): > 100 µM
TGI (SF-268 CNS): > 100 µM
TGI (SF-295 CNS): > 100 µM
TGI (SF-539 CNS): > 100 µM
TGI (SK-MEL-2 melanoma): > 100 µM
TGI (SK-MEL-28 melanoma): > 100 µM
TGI (SK-MEL-5 melanoma): > 100 µM
TGI (SK-OV-3 ovarian): > 100 µM
TGI (SN12C renal): > 100 µM
TGI (SNB-19 CNS): > 100 µM
TGI (SNB-75 CNS): > 100 µM
TGI (SR leukemia): > 100 µM
TGI (SW-620 colon): > 100 µM
TGI (TK-10 renal): > 100 µM
TGI (U251 CNS): > 100 µM
TGI (UACC-257 melanoma): > 100 µM
TGI (UACC-62 melanoma): > 100 µM
TGI (UO-31 renal): > 100 µM
TGI (XF 498 CNS): > 100 µM
